In patent US9108930B2, “N1- and N2-carbamoyl-1,2,3-triazole serine hydrolase inhibitors and methods” (The Scripps Research Institute, priority 2011, dated 2015):

What was measured:
PREPL = target: T1, PREPL (Mus musculus, UniProt Q8C167); experiment: ABPP-SILAM of brain tissue from treated mice; format: in vivo; details: may not represent actual changes
T1 construct: from tissue; host or cells: mouse brain
Experimental: (§1) The potency and selectivity of 1,2,3-triazole ureas in vivo also was investigated. Mice were treated with the APEH inhibitor AA74-1 at various doses (0.2-1.6 mg/kg; PEG300 or 18:1:1 saline/ethanol/emulphor intraperitoneally) and sacrificed after 4 h. Brains and hearts were removed, homogenized, and analyzed by gel-based competitive ABPP. […] Finally, the possibility of extending ABPP-SILAC for the characterization of inhibitor selectivity in vivo was explored by taking advantage of recently described protocols for stable isotope labeling in mammals (SILAM). In this approach, brain tissues from vehicle- and AA74-1-treated mice were separately mixed with equivalent amounts of brain tissue from ‘heavy’ amino acid-fed mice, and the samples were then labeled with FP-biotin, enriched by avidin chromatography, analyzed by LC-MS, and SH activities quantified by measuring the ratio-of-ratios for observed peptide signals. […] The ratio-of-ratio signals for APEH indicated greater than 90% inhibition of this enzyme in AA74-1-treated animals (FIG. 5b, top), consistent with average spectral count values (14 and 1 spectral counts for APEH in vehicle-treated versus AA74-1-treated mice, respectively; FIG. 5b, bottom). […] ACHE, an enzyme that is targeted by other reported NHU inhibitors, was not inhibited by AA74-1 in either mouse brain (FIG. 5b) or transfected cell (FIG. 16) proteomes.
(§2) C57BL6 mice were labeled with ^15N. Briefly, each mouse was fed an ^15N-labeled protein diet starting immediately after weaning which continued for the next 10 weeks. The ^15N-labeled diet was generated by combining spirulina biomass ^15N-labeled (Cambridge Isotopes) with protein-free diet powder (Harlan TD 93328) in a 1:2 (wt/wt) ratio and an appropriate amount of H2O to generate a dough. This dough is then cut into 2-cm thick pellets and dried at 60° C. for 2-4 h and then at 35° C. overnight using an Excalibur food dehydrator. These ^15N-labeled food pellets are then used to replace normal chow. […] Brains were determined to be 95% labeled by mass spectrometry with ^15N and used for quantitative analysis. […]

APEH [1] = target: T2, APEH (Mus musculus, UniProt Q8R146); experiment: ABPP-SILAM of brain tissue from treated mice; format: in vivo; details: treated mice (vehicle 14)
T2 sequence (Q8R146 1-732): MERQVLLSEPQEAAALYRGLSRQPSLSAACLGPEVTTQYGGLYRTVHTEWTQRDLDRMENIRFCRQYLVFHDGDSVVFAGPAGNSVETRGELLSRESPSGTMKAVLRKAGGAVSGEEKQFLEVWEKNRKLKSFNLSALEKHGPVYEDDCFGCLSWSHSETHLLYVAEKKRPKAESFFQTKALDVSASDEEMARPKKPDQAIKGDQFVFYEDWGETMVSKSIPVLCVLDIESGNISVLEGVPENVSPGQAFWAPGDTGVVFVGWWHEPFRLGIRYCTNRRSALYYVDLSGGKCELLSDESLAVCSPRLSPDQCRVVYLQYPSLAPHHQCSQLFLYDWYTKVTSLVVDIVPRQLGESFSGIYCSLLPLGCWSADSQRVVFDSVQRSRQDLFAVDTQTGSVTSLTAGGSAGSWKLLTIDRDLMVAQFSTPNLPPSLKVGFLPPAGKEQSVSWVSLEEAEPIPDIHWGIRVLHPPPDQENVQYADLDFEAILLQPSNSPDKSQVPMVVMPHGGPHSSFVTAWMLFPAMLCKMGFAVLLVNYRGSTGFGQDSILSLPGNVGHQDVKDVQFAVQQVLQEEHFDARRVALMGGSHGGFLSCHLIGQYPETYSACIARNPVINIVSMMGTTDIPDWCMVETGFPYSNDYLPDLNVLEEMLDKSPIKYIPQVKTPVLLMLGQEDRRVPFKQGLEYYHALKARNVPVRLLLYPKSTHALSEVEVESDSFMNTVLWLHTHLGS
Experimental: as §1, §2

ACHE = target: T3, ACHE (Mus musculus, UniProt P21836); experiment: ABPP-SILAM of brain tissue from treated mice; format: in vivo; details: mouse brain proteome of treated mice
T3 construct: from tissue; host or cells: mouse brain
Experimental: as §1, §2

human APEH = target: T4, human APEH (Homo sapiens, UniProt P13798); experiment: Competitive ABPP, soluble fractions of human cancer cells; format: biochemical
T4 construct: endogenous in cells; host or cells: SKOV3, C8161, MDA-MB-231 (soluble fractions)
Experimental: The soluble fractions of human ovarian (SKOV3), melanoma (C8161), and breast (MDA-MB-231) cancer cells, as well as rat neuroblastoma (B103) cells were treated with 30 nM AA74-1 or DMSO for 30 minutes at 37° C., after which the samples were analyzed by competitive ABPP. Inhibited APEH is highlighted with boxes. Note that other SHs detected in human and mouse proteomes were not inhibited by AA74-1.

APEH [2] = target: T2, APEH; experiment: In situ inhibition in cultured mouse T-cells, gel-based competitive ABPP; format: cell-based; details: 4 h at 37° C.; read-out: potency of APEH inactivation in cultured T-cells

T4 sequence (P13798 whole entry): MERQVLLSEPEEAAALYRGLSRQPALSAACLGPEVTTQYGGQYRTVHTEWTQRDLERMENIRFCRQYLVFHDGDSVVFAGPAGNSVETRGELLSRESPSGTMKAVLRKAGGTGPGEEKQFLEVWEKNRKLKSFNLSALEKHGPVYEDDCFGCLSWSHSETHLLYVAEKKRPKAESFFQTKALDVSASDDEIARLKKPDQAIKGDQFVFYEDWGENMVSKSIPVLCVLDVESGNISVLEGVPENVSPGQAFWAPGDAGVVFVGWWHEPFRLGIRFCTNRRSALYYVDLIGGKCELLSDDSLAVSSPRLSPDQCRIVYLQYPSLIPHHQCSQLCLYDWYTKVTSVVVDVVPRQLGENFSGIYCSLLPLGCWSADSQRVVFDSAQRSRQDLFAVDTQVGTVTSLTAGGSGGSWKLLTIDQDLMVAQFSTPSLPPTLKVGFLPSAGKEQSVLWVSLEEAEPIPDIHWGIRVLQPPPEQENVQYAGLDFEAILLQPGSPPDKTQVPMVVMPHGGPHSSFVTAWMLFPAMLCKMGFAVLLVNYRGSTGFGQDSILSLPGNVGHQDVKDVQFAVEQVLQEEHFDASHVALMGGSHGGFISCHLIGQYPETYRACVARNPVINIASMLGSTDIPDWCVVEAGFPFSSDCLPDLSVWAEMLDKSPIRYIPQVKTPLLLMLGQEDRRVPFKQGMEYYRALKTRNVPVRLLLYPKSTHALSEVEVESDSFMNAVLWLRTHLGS
T1 sequence (Q8C167 whole entry): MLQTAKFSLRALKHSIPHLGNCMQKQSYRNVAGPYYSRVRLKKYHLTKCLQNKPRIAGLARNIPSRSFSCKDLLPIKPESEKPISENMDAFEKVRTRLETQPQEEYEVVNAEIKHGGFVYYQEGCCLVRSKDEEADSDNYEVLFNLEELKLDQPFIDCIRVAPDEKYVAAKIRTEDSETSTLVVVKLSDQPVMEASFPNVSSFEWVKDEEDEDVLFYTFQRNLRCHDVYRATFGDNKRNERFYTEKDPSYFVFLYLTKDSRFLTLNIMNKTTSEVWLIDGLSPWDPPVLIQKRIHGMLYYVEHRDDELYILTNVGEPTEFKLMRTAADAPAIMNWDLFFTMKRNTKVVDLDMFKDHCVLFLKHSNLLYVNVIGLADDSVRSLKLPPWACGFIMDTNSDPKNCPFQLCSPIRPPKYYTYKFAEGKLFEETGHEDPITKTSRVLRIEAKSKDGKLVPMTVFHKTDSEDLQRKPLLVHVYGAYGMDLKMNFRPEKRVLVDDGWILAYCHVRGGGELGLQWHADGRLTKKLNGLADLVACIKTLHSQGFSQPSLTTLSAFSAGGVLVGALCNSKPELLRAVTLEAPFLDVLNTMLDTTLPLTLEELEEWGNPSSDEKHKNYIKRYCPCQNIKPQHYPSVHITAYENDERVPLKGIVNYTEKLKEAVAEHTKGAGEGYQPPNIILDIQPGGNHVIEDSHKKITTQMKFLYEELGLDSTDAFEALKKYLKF
T3 sequence (P21836 32-614): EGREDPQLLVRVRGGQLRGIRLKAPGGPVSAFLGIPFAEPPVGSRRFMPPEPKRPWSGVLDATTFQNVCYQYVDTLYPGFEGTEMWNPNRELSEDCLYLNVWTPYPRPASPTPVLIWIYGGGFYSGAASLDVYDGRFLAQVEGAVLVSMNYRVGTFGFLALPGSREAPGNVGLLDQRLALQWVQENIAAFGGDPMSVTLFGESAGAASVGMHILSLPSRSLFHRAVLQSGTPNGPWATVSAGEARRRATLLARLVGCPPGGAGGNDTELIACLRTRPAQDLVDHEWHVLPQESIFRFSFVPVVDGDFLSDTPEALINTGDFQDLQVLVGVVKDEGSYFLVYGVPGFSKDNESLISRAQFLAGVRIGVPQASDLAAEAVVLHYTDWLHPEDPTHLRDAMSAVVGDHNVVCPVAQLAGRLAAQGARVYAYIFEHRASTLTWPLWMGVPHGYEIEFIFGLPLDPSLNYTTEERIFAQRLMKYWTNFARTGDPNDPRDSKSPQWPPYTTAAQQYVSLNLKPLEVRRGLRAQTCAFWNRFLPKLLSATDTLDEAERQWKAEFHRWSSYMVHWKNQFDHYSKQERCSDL

Question: How did the “partial inhibition of PREPL suggested by ratio-of-ratio signals” value (PREPL) turn out when `CC(C)CC(O)(CC(C)C)c1cnn(C(=O)N2CCCC2)n1` [AA74-1] was run?
Answer: 50-60%

Question: And the “average spectral count for APEH” value (APEH [1])?
Answer: 1 spectral counts

Question: And the “ACHE inhibition in mouse brain” value (ACHE)?
Answer: not inhibited

Question: What about the IC50 (human APEH) of the same compound?
Answer: 11 nM

Question: What about the IC50 (APEH [2]) of the same compound?
Answer: 0.14 to 0.17 nM
